From Sander's compilation of Henry's law constants (doi:10.1021/je700418a)

Test: Henry solubility constant Hcp at 298.15 K (mol/(m3 Pa))
Details: reference: Helburn et al. (2008)

SMILES	Henry solubility constant Hcp
C1CCCCC1 [cyclohexane]	8e-05
CC(C)C12CCC(C)(CC1)O2 [1-methyl-4-(1-methylethyl)-7-oxabicyclo[2.2.1]heptane]	0.039
CCOCC [diethyl ether]	0.095
ClC=C(Cl)Cl [trichloroethene]	0.00094
CCCCOC(C)=O [butyl ethanoate]	0.021
CC(C)O [2-propanol]	0.68
CCCCCCCCCC=O [decanal]	0.0043
ClCCl [dichloromethane]	0.0032
Cc1ccccc1 [methylbenzene]	0.0014
C=C(C)[C@H]1CC=C(C)CC1 [(R)-1-methyl-4-(1-methylethenyl)-cyclohexene]	0.00026
CC(C)=CCCC(C)=CC#N [3,7-dimethyl-2,6-octadienenitrile]	0.029
